Experimental data as given in patent US20010047027A1, “Prostaglandin D2 receptor antagonists” (priority 2000, published 2001).

Target: T1, prostanoid DP receptor (prostaglandin D receptor) (Homo sapiens, UniProt Q13258)
T1 construct: expressed in transfected cells; host or cells: HEK293(EBNA) cells; membranes, 160,000 x g fraction
T1 sequence (Q13258 1-359): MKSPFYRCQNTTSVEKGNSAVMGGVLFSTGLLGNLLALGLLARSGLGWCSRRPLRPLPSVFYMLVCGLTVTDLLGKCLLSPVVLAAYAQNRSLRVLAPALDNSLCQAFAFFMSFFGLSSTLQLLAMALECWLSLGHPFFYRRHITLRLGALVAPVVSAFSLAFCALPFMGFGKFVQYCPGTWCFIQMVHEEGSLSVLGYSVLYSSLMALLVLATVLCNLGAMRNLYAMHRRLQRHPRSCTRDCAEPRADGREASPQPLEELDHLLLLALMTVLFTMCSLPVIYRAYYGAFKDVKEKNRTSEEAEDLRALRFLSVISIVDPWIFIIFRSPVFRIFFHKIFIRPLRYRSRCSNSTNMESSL
Experiment: Radioligand binding assay using membranes from cells that express recombinant prostanoid DP receptor
Details: for affinity for the prostaglandin D2 receptor, in words: comparison of the 1R isomers with the other two diastereomers; for Ki: membranes of HEK293(EBNA) cells expressing DP, 0.7 nM [3H]PGD2, 60 min at room temperature, n = 5, read-out: Affinity (Ki) for the prostaglandin D receptor
Protocol: Radioligand binding assays using membranes from cells that express recombinant prostanoid DP receptor (DP).
Radioligand binding assays are conducted essentially as previously described (Abramovitz et al., Biochem. Biophys. Acta 1483-2, 285-293, 2000). HEK293(EBNA) cells expressing DP are grown in supplemented DMEM complete medium at 37° C. in a humidified atmosphere of 6% CO2 in air, and then harvested. Cells are disrupted by nitrogen cavitation at 800 psi for 30 min. on ice in the presence of protease inhibitors (2 mM phenylmethylsulfonylfluoride, 10 μM E-64, 100 μM leupeptin and 0.05 mg/mL pepstatin). Membranes are prepared by differential centrifugation (1000×g for 10 min, then 160,000×g for 30 min, all at 4° C.). The 160,000×g pellets are resuspended in 10 mM HEPES/KOH (pH 7.4) containing 1 mM EDTA at approximately 5-10 mg/mL protein by Dounce homogenization (Dounce A; 10 strokes), frozen in liquid nitrogen and stored at −80° C. DP receptor binding assays are performed in a final incubation volume of 0.2 mL in 10 mM HEPES/KOH (pH 7.4), containing 1 mM EDTA, 10 mM MnCl2, 0.7 nM [^3H]PGD2 (115-200 Ci/mmol). The reaction was initiated by addition of 30-60 μg membrane protein from the 160,000×g fraction. Test compounds are added in dimethylsulfoxide (Me2SO) at 1% (v/v) in all incubations. Non-specific binding was determined in the presence of 1-10 μM of non-radioactive PGD2. Incubations are conducted for 60 min. at room temperature. Incubations are terminated by rapid filtration at 4° C. Radioactivity bound to the individual filters is determined by scintillation counting. Maximum specific binding is defined as the total binding minus the non-specific binding. Specific binding is determined at each concentration of test compound and is expressed as a percentage of the maximum specific binding. Sigmoidal equilibrium competition curves were constructed by expressing percentage maximum specific binding as a function of ligand concentration and analyzed by a validated custom designed software employing a simplex driven non-linear least-squares curve fitting routine based on a four parameter equation to determine the inflection point concentration (InPt). The corresponding Kivalues were derived from the equation Ki=InPt/1+([radioligand]/KD).

| SMILES | affinity for the prostaglandin D2 receptor, in words | Ki [nM] |
| --- | --- | --- |
| C[S@@+]([O-])c1cccc2c3c(n(Cc4ccc(Cl)cc4)c12)[C@@H](CC(=O)O)CCC3 [Compound Ib, 2-[(1R)-9-(4-chlorobenzyl)-8-((R)-methylsulfinyl)-2,3,4,9-tetrahydro-1H-carbazol-1-yl]acetic acid] | much higher affinity | 2.1 ± 0.1 |
| C[S+]([O-])c1cccc2c3c(n(Cc4ccc(Cl)cc4)c12)C(CC(=O)O)CCC3 (single isomer, unassigned) [Enantiomer of Ia, reference compound] | – | 119 ± 39 |
| C[S@+]([O-])c1cccc2c3c(n(Cc4ccc(Cl)cc4)c12)[C@@H](CC(=O)O)CCC3 [Compound Ia, 2-[(1R)-9-(4-chlorobenzyl)-8-((S)-methylsulfinyl)-2,3,4,9-tetrahydro-1H-carbazol-1-yl]acetic acid] | much higher affinity | 1.7 ± 0.3 |
| C[S+]([O-])c1cccc2c3c(n(Cc4ccc(Cl)cc4)c12)C(CC(=O)O)CCC3 (single isomer, unassigned) [Enantiomer of Ib, reference compound] | – | 72 ± 4 |
